For orientation: IC50 means the midpoint of a concentration-inhibition curve.

T1 sequence (P29375 whole entry): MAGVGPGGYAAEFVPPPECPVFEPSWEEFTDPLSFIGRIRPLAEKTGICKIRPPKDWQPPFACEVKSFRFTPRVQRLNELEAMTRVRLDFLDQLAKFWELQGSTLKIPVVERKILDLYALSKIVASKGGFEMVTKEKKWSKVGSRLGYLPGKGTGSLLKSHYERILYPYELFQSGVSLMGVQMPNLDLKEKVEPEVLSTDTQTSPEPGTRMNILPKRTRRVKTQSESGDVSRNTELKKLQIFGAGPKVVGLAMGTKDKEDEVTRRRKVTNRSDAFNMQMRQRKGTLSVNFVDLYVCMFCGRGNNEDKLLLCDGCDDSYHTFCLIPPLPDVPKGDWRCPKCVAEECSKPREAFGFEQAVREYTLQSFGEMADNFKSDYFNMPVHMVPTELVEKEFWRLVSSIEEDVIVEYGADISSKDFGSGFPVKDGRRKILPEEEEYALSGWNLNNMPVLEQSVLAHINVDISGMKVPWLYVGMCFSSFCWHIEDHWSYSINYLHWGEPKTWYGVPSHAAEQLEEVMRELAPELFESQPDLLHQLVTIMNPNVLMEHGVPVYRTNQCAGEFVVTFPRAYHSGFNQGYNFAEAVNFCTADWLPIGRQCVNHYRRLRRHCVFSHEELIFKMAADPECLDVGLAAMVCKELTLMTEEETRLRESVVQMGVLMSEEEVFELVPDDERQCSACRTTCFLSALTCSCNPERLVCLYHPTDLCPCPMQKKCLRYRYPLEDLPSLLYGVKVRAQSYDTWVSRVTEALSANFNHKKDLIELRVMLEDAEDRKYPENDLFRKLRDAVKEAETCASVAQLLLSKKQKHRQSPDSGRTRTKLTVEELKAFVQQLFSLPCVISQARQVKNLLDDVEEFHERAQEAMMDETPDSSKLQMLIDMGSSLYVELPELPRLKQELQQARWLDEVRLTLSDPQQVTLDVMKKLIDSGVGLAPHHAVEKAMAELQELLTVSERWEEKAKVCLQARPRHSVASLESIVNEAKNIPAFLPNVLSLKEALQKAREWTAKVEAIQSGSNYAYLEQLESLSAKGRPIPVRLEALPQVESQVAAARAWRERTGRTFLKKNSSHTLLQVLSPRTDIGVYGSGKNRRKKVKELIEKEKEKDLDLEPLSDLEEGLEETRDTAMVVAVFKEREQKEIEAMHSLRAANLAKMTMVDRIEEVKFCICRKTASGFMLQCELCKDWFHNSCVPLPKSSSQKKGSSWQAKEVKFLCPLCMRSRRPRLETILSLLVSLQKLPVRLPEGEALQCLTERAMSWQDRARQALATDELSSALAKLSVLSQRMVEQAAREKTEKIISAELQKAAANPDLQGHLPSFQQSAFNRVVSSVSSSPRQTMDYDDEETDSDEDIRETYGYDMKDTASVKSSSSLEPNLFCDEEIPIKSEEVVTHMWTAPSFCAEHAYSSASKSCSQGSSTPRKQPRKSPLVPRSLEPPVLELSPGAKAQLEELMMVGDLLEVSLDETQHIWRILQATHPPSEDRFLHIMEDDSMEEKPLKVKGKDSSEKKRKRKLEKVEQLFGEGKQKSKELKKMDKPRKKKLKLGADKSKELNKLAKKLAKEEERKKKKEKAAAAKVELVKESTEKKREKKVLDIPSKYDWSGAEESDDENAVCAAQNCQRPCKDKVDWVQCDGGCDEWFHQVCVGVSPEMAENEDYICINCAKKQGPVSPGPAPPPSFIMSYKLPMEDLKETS

One test has as its target T1, KDM5A (Homo sapiens, UniProt P29375).
T1 construct: Full length recombinant Flag tagged KDM5A protein was purified from Sf9 insect cells; Flag; made in house; host or cells: Sf9 insect cells
Put plainly: KDM5A Demethylase Assay (MassSpec Assay-A). Format: biochemical. The note with it: full length recombinant Flag tagged KDM5A, 20 nM; MassSpec readout; biotinylated H3K9me1 peptide 4.0 μM; read-out: A KDM5A MS (IC50). On the procedure: Full length recombinant Flag tagged KDM5A protein was purified from […] insect cells. The demethylation reaction buffer contained 50 mM TrisCl pH 7.4, 0.01% Triton X-100, 0.025 mg/mL BSA, 1 mM ascorbate (Cat# A4034, Sigma Aldrich), 2 mM TCEP (Cat# D9779, Sigma Aldrich), 2.0 μM α-ketoglutarate (# K2010, Sigma Aldrich) and 50 μM Fe2(NH4)2(SO4)2 (Cat# F1543, Sigma Aldrich). In a 25 μL demethylation reaction system, 20 nM recombinant KDM5A and was incubated with compounds for 10 minutes in the above buffer, and then […] (# K2010, Sigma Aldrich), 4.0 μM biotinylated H3K9me1 peptide (1-21 aa), and Fe2(NH4)2(SO4)2 were added to initiate the reaction. (All reagent concentrations are final reagent concentrations.) Reactions were incubated for 30 minutes at room temperature, and then quenched by addition of an equal volume of 1% formic acid. After termination, plates were sealed and frozen at −80° C. for analysis.
Turning to `CCc1c(C)[nH]c2c(-c3nnc(C(N)=O)o3)cnn2c1=O` [Example 56, 5-(6-Ethyl-5-methyl-7-oxo-4,7-dihydropyrazolo[1,5-a]pyrimidin-3-yl)-1,3,4-oxadiazole-2-carboxamide], the half-maximal inhibitory concentration (IC50) worked out at 276 nM.

As for `CCc1c(C)[nH]c2c(-c3nnc(-c4ccccn4)o3)cnn2c1=O` [Example 57, 6-Ethyl-5-methyl-3-(5-(pyridin-2-yl)-1,3,4-oxadiazol-2-yl)pyrazolo[1,5-a]pyrimidin-7(4H)-one], the IC50 was 268 nM.

As to `CCc1c(C)[nH]c2c(-c3nc(C(N)=O)no3)cnn2c1=O` [Example 58, 5-(6-Ethyl-5-methyl-7-oxo-4,7-dihydropyrazolo[1,5-a]pyrimidin-3-yl)-1,2,4-oxadiazole-3-carboxamide], the half-maximal inhibitory concentration (IC50) is 332 nM.

As to `CCc1c(C)[nH]c2c(-c3nc(-c4ccccn4)no3)cnn2c1=O` [Example 59, 6-Ethyl-5-methyl-3-(3-(pyridin-2-yl)-1,2,4-oxadiazol-5-yl)pyrazolo[1,5-a]pyrimidin-7(4H)-one], the 50% inhibitory concentration (IC50) came to 518 nM.

In the case of `CCc1c(C)[nH]c2c(-c3cc(-c4ccccn4)on3)cnn2c1=O` [Example 60, 6-Ethyl-5-methyl-3-(5-(pyridin-2-yl)isoxazol-3-yl)pyrazolo[1,5-a]pyrimidin-7(4H)-one], the IC50 was 4000 nM.

As for `CCc1c(C)[nH]c2c(-c3cnn(-c4nccc5ccccc45)c3)cnn2c1=O` [Example 66, 6-ethyl-3-(1-(isoquinolin-1-yl)-1H-pyrazol-4-yl)-5-methylpyrazolo[1,5-a]pyrimidin-7(4H)-one], the concentration for half-maximal inhibition (IC50) amounted to 861 nM.

Consider `CCc1c(C)[nH]c2c(-c3cnn(-c4ncccc4C)c3)cnn2c1=O` [Example 67, 6-ethyl-5-methyl-3-(1-(3-methylpyridin-2-yl)-1H-pyrazol-4-yl)pyrazolo[1,5-a]pyrimidin-7(4H)-one], for which the IC50 stood at 363 nM.

As to `CCc1c(C)[nH]c2c(-c3cnn(-c4cc5ccccc5cn4)c3)cnn2c1=O` [Example 68, 6-ethyl-3-(1-(isoquinolin-3-yl)-1H-pyrazol-4-yl)-5-methylpyrazolo[1,5-a]pyrimidin-7(4H)-one], the IC50 is 36.9 nM.

On to `CCc1c(C)[nH]c2c(-c3cnn(-c4cccnn4)c3)cnn2c1=O` [Example 69, 6-ethyl-5-methyl-3-(1-(pyridazin-3-yl)-1H-pyrazol-4-yl)pyrazolo[1,5-a]pyrimidin-7(4H)-one], for which the IC50 was 233 nM.

For the molecule `CCc1c(C)[nH]c2c(-c3cnn(-c4cccc(OC)n4)c3)cnn2c1=O` [Example 70, 6-ethyl-3-(1-(6-methoxypyridin-2-yl)-1H-pyrazol-4-yl)-5-methylpyrazolo[1,5-a]pyrimidin-7(4H)-one], the IC50 amounted to 3730 nM.

For `CCc1c(C)[nH]c2c(-c3cnn(-c4cc(C)ccn4)c3)cnn2c1=O` [Example 71, 6-ethyl-5-methyl-3-(1-(4-methylpyridin-2-yl)-1H-pyrazol-4-yl)pyrazolo[1,5-a]pyrimidin-7(4H)-one], the half-maximal inhibitory concentration (IC50) is 26.3 nM.

With `CCc1c(C)[nH]c2c(-c3cnn(-c4cnccn4)c3)cnn2c1=O` [Example 72, 6-ethyl-5-methyl-3-(1-(pyrazin-2-yl)-1H-pyrazol-4-yl)pyrazolo[1,5-a]pyrimidin-7(4H)-one], the IC50 came to 76 nM.

Turning to `Cc1[nH]c2c(-n3cnc(-c4ccccn4)c3)cnn2c(=O)c1C` [Example 73, 5,6-dimethyl-3-(4-(pyridin-2-yl)-1H-imidazol-1-yl)pyrazolo[1,5-a]pyrimidin-7(4H)-one], the concentration for half-maximal inhibition (IC50) was 53.7 nM.

Turning to `CCc1c(C)[nH]c2c(-n3cnc(C(=O)NC)c3)cnn2c1=O` [Example 74, 1-(6-ethyl-5-methyl-7-oxo-4,7-dihydropyrazolo[1,5-a]pyrimidin-3-yl)-N-methyl-1H-imidazole-4-carboxamide], the IC50 is 996 nM.

Regarding `CCc1c(C)[nH]c2c(-n3cnc(C(=O)N(C)C)c3)cnn2c1=O` [Example 75, 1-(6-ethyl-5-methyl-7-oxo-4,7-dihydropyrazolo[1,5-a]pyrimidin-3-yl)-N,N-dimethyl-1H-imidazole-4-carboxamide], the 50% inhibitory concentration (IC50) stood at 178 nM.

For `CCc1c(C)[nH]c2c(-n3ccnc3C)cnn2c1=O` [Example 77, 6-ethyl-5-methyl-3-(2-methyl-1H-imidazol-1-yl)pyrazolo[1,5-a]pyrimidin-7(4H)-one], the IC50 was found to be 3380 nM.

As for `CCc1c(-c2ccccc2)[nH]c2c(-n3ccnc3)cnn2c1=O` [Example 79, 6-ethyl-3-(1H-imidazol-1-yl)-5-phenylpyrazolo[1,5-a]pyrimidin-7(4H)-one], the 50% inhibitory concentration (IC50) was determined as 43200 nM.

As to `CCc1c(C)[nH]c2c(-n3cnc(I)c3)cnn2c1=O` [Example 80, 6-ethyl-3-(4-iodo-1H-imidazol-1-yl)-5-methylpyrazolo[1,5-a]pyrimidin-7(4H)-one], the half-maximal inhibitory concentration (IC50) was 29400 nM.

Turning to `CCc1c(C)[nH]c2c(-n3cncc3I)cnn2c1=O` [Example 81, 6-ethyl-3-(5-iodo-1H-imidazol-1-yl)-5-methylpyrazolo[1,5-a]pyrimidin-7(4H)-one], the IC50 was 3050 nM.

Take `CCc1c(C)[nH]c2c(-n3cnc4ccccc43)cnn2c1=O` [Example 82, 3-(1H-benzo[d]imidazol-1-yl)-6-ethyl-5-methylpyrazolo[1,5-a]pyrimidin-7(4H)-one]: the half-maximal inhibitory concentration (IC50) was determined as 80000 nM.

The next test has as its target T1, KDM5A. Description: KDM5A Demethylase Assay (TR-FRET Assay-C). To be noted: full length recombinant Flag tagged KDM5A, 2 nM, HEPES pH 7.0, 1 μM α-ketoglutarate, read-out: C KDM5A HTRF (IC50). In kind it is biochemical. As to the method: Full length recombinant Flag tagged KDM5A protein was purified from Sf9 insect cells. The demethylation reaction buffer contained 50 mM HEPES pH 7.0, 0.01% Triton X-100, 0.5 mM ascorbate, 2 mM DTT, 1 μM α-ketoglutarate, and 100 μM Fe2(NH4)2(SO4)2. In a 10 μL demethylation reaction system, 2 nM recombinant KDM5A was added to compounds in the above buffer (Vt 5 uL) in a 384 well Proxi Plate (Perkin Elmer Corp.) and then 0.1 μM biotinylated H3K9me1 peptide (1-21 aa, New England Peptide, Vt 5 uL) was added to initiate the reaction (Vt 10 uL). (All protein/reagent concentrations are final concentrations.) Reactions were incubated for 30 minutes at room temperature, and then quenched by addition of 5 uL stop buffer (3 mM EDTA, 50 mM TrisCl pH 7.5, 0.01% Triton X-100, 0.01 mg/mL BSA) followed by addition of 5 uL of detection reagents (buffer as above without EDTA but with addition of 200 nM SA-XL665 (CisBio) and 2 nM Eu(W1024)-anti-H3K4Me1-2 antibody (PerkinElmer)). After a 30 minute incubation assays were read on a Perkin-Elmer Envision equipped with appropriate filters. IC50s were calculated using standard dose-response equations and relative to a Max (no inhibition) and Min (no enzyme or quenched enzyme) controls.
(In general: Time-resolved FRET reads energy transfer from a long-lived donor to a nearby acceptor.)
Take `Cc1ccc(-n2cc(-c3cnn4c(=O)c(C5CC5)c(C)[nH]c34)cn2)nc1` [Example 27, 6-cyclopropyl-5-methyl-3-(1-(5-methylpyridin-2-yl)-1H-pyrazol-4-yl)pyrazolo[1,5-a]pyrimidin-7(4H)-one]: the IC50 amounted to 33.2 nM.

In the case of `O=c1c2c([nH]c3c(-c4cnn(-c5ccccn5)c4)cnn13)CCC2` [Example 42, 3-(1-(pyridin-2-yl)-1H-pyrazol-4-yl)-6,7-dihydro-4H-cyclopenta[d]pyrazolo[1,5-a]pyrimidin-8(5H)-one], the IC50 was 32.2 nM.

Take `Cc1[nH]c2c(-n3cnc(-c4ccccn4)c3)cnn2c(=O)c1C(C)C` [Example 46, 6-isopropyl-5-methyl-3-(4-(pyridin-2-yl)-1H-imidazol-1-yl)pyrazolo[1,5-a]pyrimidin-7(4H)-one]: the IC50 is 23.4 nM.

Values taken from patent publication US9505767B2, “Pyrazolo[1,5-A]pyrimidin-7(4H)-onehistone demethylase inhibitors” (Genentech, Inc., priority 2013, dated 2016).
